From patent US8889704B2 (Array BioPharma Inc., priority 2011, dated 2014)
Structures can show the parent of a compound that is named as a salt.

Columns and labels:
Type in all cases: biochemical
PIM-1 = PIM-1 (Homo sapiens, UniProt P11309); assay: Enzyme PIM-1 Assay ([33P]ATP incorporation into PIM2tide, filter plate); details: averaged IC50; 35 μM ATP, 7.5 μM PIM2tide, 0.25 nM PIM-1, 60 min at 22° C.
Method in brief: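 Radiometric assay: 0.25 nM PIM-1 phosphorylates 7.5 μM PIM2tide with 35 μM [γ-33P]ATP in 20 mM MOPS pH 7.4, 10 mM MgCl2, 1 mM DTT, 0.005% Tween-20, 60 min at 22 °C. Product captured on P81 filters, scintillation counted; 10-point 3-fold curve from 10 μM top, 2% DMSO, IC50 by 4-parameter logistic fit of POC.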

[1] = target: T1, GST-tagged recombinant full-length human Pim-2 (Homo sapiens, UniProt Q9P1W9); assay: PIM-2 Assay (as Example A); details: averaged IC50; 4 μM ATP, 1.0 μM PIM2tide, 1.5 nM Pim-2
T1 construct: GST-tagged recombinant full-length human Pim-2; GST
T1 sequence (Q9P1W9 whole entry): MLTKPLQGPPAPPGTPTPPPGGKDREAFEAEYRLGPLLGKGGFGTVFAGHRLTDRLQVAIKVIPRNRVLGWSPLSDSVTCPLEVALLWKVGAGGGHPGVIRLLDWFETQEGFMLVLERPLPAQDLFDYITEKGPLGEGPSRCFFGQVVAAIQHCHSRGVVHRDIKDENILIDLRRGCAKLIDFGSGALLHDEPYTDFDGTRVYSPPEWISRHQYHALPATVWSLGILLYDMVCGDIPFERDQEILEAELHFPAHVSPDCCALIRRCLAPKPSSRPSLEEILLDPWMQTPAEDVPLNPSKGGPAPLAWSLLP
Method in brief: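 Radiometric filter-binding assay: GST-tagged full-length human Pim-2 (1.5 nM) phosphorylates 1.0 μM PIM2tide with 4 μM [γ-33P]ATP for 60 min at 22 °C in pH 7.4 MOPS buffer, 2% DMSO. 10-point 3-fold dilutions from 10 μM top dose; IC50 from 4-parameter fit of percent of control.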

recombinant rat PIM-3 = recombinant rat PIM-3 (Rattus norvegicus, UniProt O70444); assay: PIM-3 Assay (as Example A); details: averaged IC50; 30 μM ATP, 3.75 μM PIM2tide, 0.5 nM PIM-3
Method in brief: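 Recombinant rat PIM-3 (0.5 nM) with 3.75 μM PIM2tide and 30 μM [γ-33P]ATP in MOPS pH 7.4 buffer, 60 min at 22 °C; labelled peptide captured on phosphocellulose filters and counted by scintillation. 10-point curve (top dose 10 μM, 2% DMSO); IC50 from 4-parameter fit of percent of control.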

Chain of PIM-1 (P11309 whole entry, species assumed): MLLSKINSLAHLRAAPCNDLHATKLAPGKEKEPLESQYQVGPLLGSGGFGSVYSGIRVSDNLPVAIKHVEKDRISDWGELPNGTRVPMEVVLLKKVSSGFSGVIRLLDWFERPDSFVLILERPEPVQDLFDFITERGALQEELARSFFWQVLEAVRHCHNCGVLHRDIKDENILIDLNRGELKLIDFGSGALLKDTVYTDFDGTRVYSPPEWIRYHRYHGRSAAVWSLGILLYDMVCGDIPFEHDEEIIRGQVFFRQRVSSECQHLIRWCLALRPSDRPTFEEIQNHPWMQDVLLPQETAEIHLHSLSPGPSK

Compound	IC50 (PIM-1) [nM]	IC50 [1] [nM]	IC50 (recombinant rat PIM-3) [nM]
CC(C)C(=O)OCCOc1cc2nc(-c3nnc4ccc([C@@H](N5CC[C@H](N)C5)C(F)(F)F)cn34)ccc2cc1F [Example 285, 2-(2-(6-((R)-1-((S)-3-aminopyrrolidin-1-yl)-2,2,2-trifluoroethyl)-[1,2,4]triazolo[4,3-a]pyridin-3-yl)-6-fluoroquinolin-7-yloxy)ethyl isobutyrate]	0.57	> 1000	8.6
CC(C)(C)C(=O)OCCOc1cc2nc(-c3nnc4ccc([C@@H](N5CC[C@H](N)C5)C(F)(F)F)cn34)ccc2cc1F [Example 286, 2-(2-(6-((R)-1-((S)-3-aminopyrrolidin-1-yl)-2,2,2-trifluoroethyl)-[1,2,4]triazolo[4,3-a]pyridin-3-yl)-6-fluoroquinolin-7-yloxy)ethyl pivalate]	1.38	> 1000	33
CCC(C)(C)C(=O)OCCOc1cc2nc(-c3nnc4ccc([C@@H](N5CC[C@H](N)C5)C(F)(F)F)cn34)ccc2cc1F [Example 289, 2-(2-(6-((R)-1-((S)-3-aminopyrrolidin-1-yl)-2,2,2-trifluoroethyl)-[1,2,4]triazolo[4,3-a]pyridin-3-yl)-6-fluoroquinolin-7-yloxy)ethyl 2,2-dimethylbutanoate]	0.38	459	1.6
CC(C)[C@H](N)C(=O)OCCOc1cc2nc(-c3nnc4ccc([C@@H](N5CC[C@H](N)C5)C(F)(F)F)cn34)ccc2cc1F [Example 290, (S)-2-(2-(6-((R)-1-((S)-3-aminopyrrolidin-1-yl)-2,2,2-trifluoroethyl)-[1,2,4]triazolo[4,3-a]pyridin-3-yl)-6-fluoroquinolin-7-yloxy)ethyl 2-amino-3-methylbutanoate]	29.7	> 1000	> 100
CO[C@H](C)COc1cc(-c2nnc3ccc([C@@H](N4CC[C@H](N)C4)C(F)(F)F)cn23)nc2ccccc12 [Example 291, (S)-1-((R)-2,2,2-trifluoro-1-(3-(4-((R)-2-methoxypropoxy)quinolin-2-yl)-[1,2,4]triazolo[4,3-a]pyridin-6-yl)ethyl)pyrrolidin-3-amine formate]	0.19	82	0.5

More lines, in order of falling IC50 (PIM-1), values ahead:

IC50 (PIM-1) [nM]	IC50 [1] [nM]	IC50 (recombinant rat PIM-3) [nM]	Compound
9.42	> 1000	56	CCC(CC)C(=O)OCCOc1cc2nc(-c3nnc4ccc([C@@H](N5CC[C@H](N)C5)C(F)(F)F)cn34)ccc2cc1F [Example 288, 2-(2-(6-((R)-1-((S)-3-aminopyrrolidin-1-yl)-2,2,2-trifluoroethyl)-[1,2,4]triazolo[4,3-a]pyridin-3-yl)-6-fluoroquinolin-7-yloxy)ethyl 2-ethylbutanoate]
0.32	178	0.7	CO[C@@H](C)COc1ccc2ccc(-c3nnc4ccc([C@@H](N5CC[C@H](N)C5)C(F)(F)F)cn34)nc2c1 [Example 287, (S)-1-((R)-2,2,2-trifluoro-1-(3-(7-((S)-2-methoxypropoxy)quinolin-2-yl)-[1,2,4]triazolo[4,3-a]pyridin-6-yl)ethyl)pyrrolidin-3-amine dihydrochloride]
0.28	50	0.4	COCCc1cc2nc(-c3nnc4ccc([C@H](N5CC[C@](C)(N)C5)C(F)(F)F)cn34)ccc2cc1F [Example 284, (S)-3-methyl-1-((S)-2,2,2-trifluoro-1-(3-(6-fluoro-7-(2-methoxyethyl)quinolin-2-yl)-[1,2,4]triazolo[4,3-a]pyridin-6-yl)ethyl)pyrrolidin-3-amine dihydrochloride]
0.18	194	0.7	C[C@@H](O)COc1cccc2ccc(-c3nnc4ccc([C@@H](N5CC[C@H](N)C5)C(F)(F)F)cn34)nc12 [Example 283, (R)-1-(2-(6-((R)-1-((S)-3-aminopyrrolidin-1-yl)-2,2,2-trifluoroethyl)-[1,2,4]triazolo[4,3-a]pyridin-3-yl)quinolin-8-yloxy)propan-2-ol formate]
